Data on 8 cell lines can be found in the supplement of paper PMC10307832.

What all share (test): relative viability (nuclei count vs DMSO), 5 days (fraction); higher = more cells survive
Compound in assay [1]: CCc1c2c(nc3ccc(OC(=O)N4CCC(N5CCCCC5)CC4)cc13)-c1cc3c(c(=O)n1C2)COC(=O)[C@]3(O)CC [Irinotecan] + CS(=O)(=O)N1CCN(Cc2cc3nc(-c4cccc5[nH]ncc45)nc(N4CCOCC4)c3s2)CC1 [Pictilisib] (partner 1 µM)
Put shortly: (§1)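 Lung cancer cell lines were seeded in 1536-well plates and dosed by pin tool the next day, with either a single drug or a fixed anchor-drug dose combined with five library-drug doses (not always all listed) spaced in √10 steps. Five days later, one step fixed the cells and stained their nuclei (final 0.05% Triton X-100, 1% formaldehyde, 1 ug/ml Hoechst), and nuclei were counted on 4× images. Relative viability is the nuclei count in treated wells divided by the count in vehicle wells, and each value is the median of duplicate plates.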

Compound in assay [2]: Cn1cc(-c2cnc3ccc4ccc(CS(=O)(=O)NCc5ccccn5)cc4c(=O)c3c2)cn1 [MK-8033] + Cc1nc(NC(=O)N2CCC[C@H]2C(N)=O)sc1-c1ccnc(C(C)(C)C(F)(F)F)c1 [Alpelisib] (partner 2 µM)
Put shortly:
as §1

Compound in assay [3]: CCc1c2c(nc3ccc(OC(=O)N4CCC(N5CCCCC5)CC4)cc13)-c1cc3c(c(=O)n1C2)COC(=O)[C@]3(O)CC [Irinotecan] + COc1cc2c(Oc3ccc(NC(=O)C4(C(=O)Nc5ccc(F)cc5)CC4)cc3F)ccnc2cc1OCCCN1CCOCC1 [Foretinib] (partner 0.25 µM)
The gist of the method: as §1

Compound in assay [4]: CC[C@@H](C)CNCC(=O)N1CCC2=C([C@@H]1COC3=CC=CC(=C3)C)C=CS2 [RU-SKI 43] + Nc1nc2[nH]cc(CCc3ccc(C(=O)N[C@@H](CCC(=O)O)C(=O)O)cc3)c2c(=O)[nH]1 [Pemetrexed] (partner 0.2 µM)
Put shortly: as §1

For Calu-6, the relative viability in assay [1] (first compound 0.6325 µM) came to 0.573; in assay [1] (first compound 2 µM) it was 0.417; in assay [1] (first compound 6.325 µM) it was 0.219; in assay [1] (first compound 20 µM), 0.0958; in assay [2] (first compound 0.02 µM), 1.02; in assay [2] (first compound 0.06325 µM), 1.02. In addition, the relative viability in assay [2] (first compound 0.2 µM) is 0.843; in assay [2] (first compound 0.6325 µM) it was 0.941; in assay [2] (first compound 2 µM), 0.916; in assay [3] (first compound 0.6325 µM), 0.605; in assay [3] (first compound 2 µM) it was 0.429; in assay [3] (first compound 6.325 µM), 0.168. For the same cell line, the relative viability in assay [3] (first compound 20 µM) amounted to 0.087.

As to ChaGo-K-1, the relative viability was found to be 0.268 in assay [4] (first compound 0.1 µM); 0.299 in assay [4] (first compound 0.3162 µM); 0.249 in assay [4] (first compound 1 µM); 0.284 in assay [4] (first compound 3.162 µM); 0.265 in assay [4] (first compound 10 µM); 0.645 in assay [1] (first compound 2 µM). Also, the relative viability is 0.523 in assay [1] (first compound 6.325 µM); 0.161 in assay [1] (first compound 20 µM); 0.65 in assay [3] (first compound 0.6325 µM); 0.367 in assay [3] (first compound 2 µM); 0.255 in assay [3] (first compound 6.325 µM); 0.248 in assay [3] (first compound 20 µM).

For EBC-1, the relative viability in assay [1] (first compound 0.6325 µM) was found to be 0.29; in assay [1] (first compound 2 µM), 0.301; in assay [1] (first compound 6.325 µM), 0.315; in assay [1] (first compound 20 µM), 0.131; in assay [2] (first compound 0.02 µM) it was 0.832; in assay [2] (first compound 0.06325 µM), 0.686. The relative viability came out at 0.904 in assay [2] (first compound 0.2 µM); 0.678 in assay [2] (first compound 0.6325 µM); 0.207 in assay [2] (first compound 2 µM); 0.0988 in assay [3] (first compound 0.6325 µM); 0.1 in assay [3] (first compound 2 µM); 0.115 in assay [3] (first compound 6.325 µM). Further, the relative viability in assay [3] (first compound 20 µM) was determined as 0.112.

As for EKVX, the relative viability in assay [4] (first compound 0.1 µM) was 0.419; in assay [4] (first compound 0.3162 µM), 0.344; in assay [4] (first compound 1 µM), 0.417; in assay [4] (first compound 3.162 µM), 0.407; in assay [4] (first compound 10 µM) it was 0.393; in assay [1] (first compound 0.6325 µM) it was 0.503. Besides, the relative viability in assay [1] (first compound 2 µM) was found to be 0.421; in assay [1] (first compound 6.325 µM), 0.224; in assay [1] (first compound 20 µM), 0.163; in assay [2] (first compound 0.02 µM), 0.812; in assay [2] (first compound 0.06325 µM), 0.747; in assay [2] (first compound 0.2 µM) it was 0.787. Moreover, the relative viability is 0.808 in assay [2] (first compound 0.6325 µM); 0.903 in assay [2] (first compound 2 µM); 0.199 in assay [3] (first compound 0.6325 µM); 0.726 in assay [3] (first compound 2 µM); 0.529 in assay [3] (first compound 6.325 µM); 0.164 in assay [3] (first compound 20 µM).

Consider EMC-BAC-2, for which the relative viability in assay [4] (first compound 0.1 µM) amounted to 0.441; in assay [4] (first compound 0.3162 µM), 0.401; in assay [4] (first compound 1 µM), 0.455; in assay [4] (first compound 3.162 µM), 0.428; in assay [4] (first compound 10 µM), 0.443; in assay [1] (first compound 0.6325 µM) it was 0.37. Besides, the relative viability is 0.373 in assay [1] (first compound 2 µM); 0.234 in assay [1] (first compound 6.325 µM); 0.223 in assay [1] (first compound 20 µM); 0.666 in assay [2] (first compound 0.02 µM); 0.709 in assay [2] (first compound 0.06325 µM); 0.743 in assay [2] (first compound 0.2 µM). Further, the relative viability was found to be 0.713 in assay [2] (first compound 0.6325 µM); 0.68 in assay [2] (first compound 2 µM); 0.691 in assay [3] (first compound 0.6325 µM); 0.379 in assay [3] (first compound 2 µM); 0.274 in assay [3] (first compound 6.325 µM); 0.44 in assay [3] (first compound 20 µM).

EPLC-272H: the relative viability in assay [4] (first compound 0.1 µM) came to 0.349; in assay [4] (first compound 0.3162 µM), 0.405; in assay [4] (first compound 1 µM), 0.243; in assay [4] (first compound 3.162 µM), 0.317; in assay [4] (first compound 10 µM), 0.238; in assay [1] (first compound 0.6325 µM), 0.212. Moreover, the relative viability in assay [1] (first compound 2 µM) worked out at 0.305; in assay [1] (first compound 6.325 µM), 0.188; in assay [1] (first compound 20 µM), 0.195; in assay [2] (first compound 0.02 µM), 0.91; in assay [2] (first compound 0.2 µM) it was 0.877; in assay [2] (first compound 0.6325 µM) it was 0.948. Besides, the relative viability came out at 1.02 in assay [2] (first compound 2 µM); 0.283 in assay [3] (first compound 0.6325 µM); 0.235 in assay [3] (first compound 2 µM); 0.168 in assay [3] (first compound 6.325 µM); 0.297 in assay [3] (first compound 20 µM).

For H3255, the relative viability in assay [4] (first compound 0.1 µM) came out at 0.554; in assay [4] (first compound 0.3162 µM), 0.61; in assay [4] (first compound 1 µM), 0.571; in assay [4] (first compound 3.162 µM), 0.555; in assay [4] (first compound 10 µM), 0.595; in assay [1] (first compound 0.6325 µM), 0.302. For the same cell line, the relative viability in assay [1] (first compound 2 µM) worked out at 0.272; in assay [1] (first compound 6.325 µM), 0.222; in assay [1] (first compound 20 µM) it was 0.23; in assay [2] (first compound 0.02 µM) it was 0.643; in assay [2] (first compound 0.06325 µM) it was 0.571; in assay [2] (first compound 0.2 µM) it was 0.562. Moreover, the relative viability in assay [2] (first compound 0.6325 µM) was determined as 0.695; in assay [2] (first compound 2 µM), 0.608; in assay [3] (first compound 0.6325 µM), 0.398; in assay [3] (first compound 2 µM) it was 0.558; in assay [3] (first compound 6.325 µM), 0.36; in assay [3] (first compound 20 µM), 0.305.

HARA: the relative viability was determined as 0.265 in assay [4] (first compound 0.1 µM); 0.264 in assay [4] (first compound 0.3162 µM); 0.259 in assay [4] (first compound 1 µM); 0.277 in assay [4] (first compound 3.162 µM); 0.254 in assay [4] (first compound 10 µM); 0.189 in assay [1] (first compound 0.6325 µM). Besides, the relative viability in assay [1] (first compound 2 µM) stood at 0.104; in assay [1] (first compound 6.325 µM), 0.161; in assay [1] (first compound 20 µM), 0.0982; in assay [2] (first compound 0.02 µM), 0.777; in assay [2] (first compound 0.06325 µM), 0.742; in assay [2] (first compound 0.2 µM), 0.76. In addition, the relative viability in assay [2] (first compound 0.6325 µM) came out at 0.743; in assay [2] (first compound 2 µM), 0.871; in assay [3] (first compound 0.6325 µM), 0.315; in assay [3] (first compound 2 µM) it was 0.174; in assay [3] (first compound 6.325 µM), 0.116; in assay [3] (first compound 20 µM), 0.127.
